According to PMC5902495, “Synthesis of Symmetrical Tetrameric Conjugates of the Radiolanthanide Chelator DOTPI for Application in Endoradiotherapy by Means of Click Chemistry” (Frontiers in Chemistry, 2018):

How the values were obtained:
Type in all cases: physicochemical
[1] = Protonation constants of ligands by pH-potentiometry; settings: 25°C, I = 0.15 M NaCl
From the text: (§1) For determining the protonation constants of DOTPI(Chx)4 and DOTPI three parallel pH-potentiometric titration were made with 0.2 M NaOH in 0.002 M ligand solutions. The stability and protonation constants of the Ca^II and Zn^II complexes formed with DOTPI(Chx)4 and DOTPI ligands have been determined by direct pH-potentiometric titration made at 1:1 and 2:1 metal to ligand concentration ratios. (the concentration of ligands was 0.002 M). For the calculation of the logKML and logKMLHi values, the mL base—pH data used were obtained in the pH range 1.7–12.0.
(§2) For pH measurements and titrations, a Metrohm 785 DMP Titrino titration workstation and a Metrohm-6.0233.100 combined electrode were used. Equilibrium measurements were carried out at a constant ionic strength (0.15 M NaCl) in 6 mL samples at 25°C. The solutions were stirred, and constantly purged with N2. The titrations were performed in a pH range of 1.7–11.7. KH-phthalate (pH = 4.005) and borax (pH = 9.177) buffers were used to calibrate the pH meter. For calculation of [H^+] from measured pH values, the method proposed by Irving et al. was used (Irving et al., [1967]). A 0.01 M HCl solution was titrated with the standardized NaOH solution in the presence of 0.1 M NaCl. Differences between the measured (pHread) and calculated pH (–log[H^+]) values were used to obtain the equilibrium H^+ concentration from the pH values, measured in the titration experiments. For the equilibrium calculations, the stoichiometric water ionic product (pKw) is also needed to calculate [H^+] values in basic conditions. The VNaOH – pHread data pairs of the HCl – NaOH titration obtained in the pH range 10.5–12 have been used to calculate the pKw value (pKw = 13.85). For the calculation of the equilibrium constants the program PSEQUAD (Zekany and Nagypal, [1985]) was used.
(§3) 2. Protonation and complexation equilibria of DOTPI and
(§4) The protonation processes of the DOTPI and DOTPI(Chx)4, ligands have been studied by pH-potentiometry. The protonation constants (logKiH) of ligands are defined according to Eq. (1).
(§5) The stability and protonation constants of DOTPI and DOTPI(Chx)4 complexes with several metal ions were determined by pH-potentiometric and UV/Vis spectrophotometric, methods.
(§6) The stability and protonation constants of the metal complexes formed with the DOTPI and DOTPI(Chx)4, ligands, defined by Eqs. […]
(§7) where i = 1, 2, 3…5. The KML and KMHiL values characterizing the formation of DOTPI and DOTPI(Chx)4 complexes of CaII and ZnII have been calculated from the pH-potentiometric titration data obtained at 1:1 metal to ligand concentration ratios. The protonation constants of the complexes Cu(DOTPI) and Cu(DOTPI( Chx)4) were also determined by pH-potentiometric titrations, made at 1:1 metal to ligand concentration ratio. The pH-potentiometric titrations of DOTPI ligand were also performed at 2:1 metal-to-ligand ratio in order to examine the possible formation of dinuclear CaII-, ZnII-, and CuII-DOTPI complexes.
(§8) The stability and protonation constants of the dinuclear complexes formed with the DOTPI […]
(§9) where i=1 and 2. In calculating the equilibrium constants, the best fit of the mL base – pH data was obtained by assuming the formation of ML, MHL, MH 2L, MH3L, MH4L, MH5L, M2L, M2LH, and M2LH2 complexes with DOTPI and DOTPI(Chx)4.
(§10) (also on this page, place not known: ]H][LH[ ]LH[K 1i iH + − = DOTPI( Chx)4 f ormed ]L][M[ ]ML[K ML = ]H][LMH[ ]LMH[K 1i i LMHi + − = i 3 …5. Ca II Zn II -potentiometric pH - metal -to-ligand Cu II-DOTPI ]M][ML[ ]LM[K 2 LM2 = ]H][LHM[ ]LHM[K 1i2 i2 LHM i2 + − = pH MH 4L,) […]

[2] = Stability and protonation constants of Zn^II complexes (pH-potentiometry); settings: 25°C, 0.15 M NaCl
From the text: as §1, §2, §3, §4, §5, §6, §7, §8, §9, §10

[3] = Stability and protonation constants of Ca^II complexes (pH-potentiometry); settings: 25°C, 0.15 M NaCl
From the text: as §1, §2, §3, §4, §5, §6
as §7, with “The pH-potentiometric titrations of DOTPI ligand were also performed at 2:1 metal-to-ligand ratio in order to examine the possible formation of dinuclear CaII-, ZnII-, and CuII-DOTPI complexes.” left out

## O=C(O)CCP(=O)(O)CN1CCN(CP(=O)(O)CCC(=O)O)CCN(CP(=O)(O)CCC(=O)O)CCN(CP(=O)(O)CCC(=O)O)CC1 [DOTPI, 1,4,7,10-tetraazacyclododecane-1,4,7,10-tetrakis[methylene(2-carboxyethylphosphinic acid)]]
[1]
  log K1H: 10.27 (1)
  log K2H: 8.42 (1)
  log K3H: 5.45 (2)
  log K4H: 4.78 (2)
  log K5H: 4.42 (2)
  log K6H: 3.88 (2)
  log K7H: 2.83 (2)
  log K8H: 1.17 (2)
[1]; distant carboxylate groups of DOTPI not considered
  Σlog KiH (total basicity): 22.69
[2]
  protonation constant Zn2LH: 5.02 (5)
  protonation constant Zn2LH2: 4.87 (4)
  protonation constant ZnH2L: 5.15 (3)
  protonation constant ZnH3L: 4.40 (4)
  protonation constant ZnH4L: 4.42 (1)
  protonation constant ZnHL: 5.65 (3)
  stability constant of dinuclear complex Zn2L: 3.78 (4)
[3]
  protonation constant CaH2L: 5.04 (9)
  protonation constant CaHL: 6.49 (4)
  stability constant of dinuclear complex Ca2L: 2.85 (5)
